Experimental data as given in patent US20240238243A1, “METHODS AND COMPOSITIONS FOR TREATMENT OF HEART FAILURE WITH PRESERVED EJECTION FRACTION” (Northwestern University, priority 2023, published 2024).

Columns and labels:
protein O-GlcNAcylation = assay: Immunoblot of protein O-GlcNAcylation after intraperitoneal 5S-GlcNHex; assay type: in vivo, mouse
Description: Protein extracts from frozen mouse hearts, isolated cardiomyocytes, fibroblasts, endothelial cells, and HUVECs were prepared by lysis in ice-cold RIPA buffer (150 mM NaCl, 25 mM Tris-HCl pH 7.4, 1% NP-40, 1% sodium deoxycholate, 0.1% SDS) containing protease inhibitors. For analyses of O-GlcNAcylation, 200 μg/ml of PUGNAC (Sigma-Aldrich) was added to the RIPA buffer. Proteins were separated by sodium dodecyl sulfate-polyacrylamide gel electrophoresis (SDS-PAGE) on 8 or 10% polyacrylamide gels and transferred to nitrocellulose membranes. Membranes were incubated with the following primary antibodies overnight, before the addition of HRP-conjugated secondary antibodies: HK1 (2024, Cell Signaling Technology); HK2 (2867, Cell Signaling Technology); GAPDH (60004-1-Ig, Proteintech); FLAG (F1804, Sigma-Aldrich); alpha-tubulin (66031-1-Ig, Proteintech); ATP synthase C (ab181243, Abcam); Phospho-AMPKα (Thr172) (4188, Cell Signaling Technology); AMPKα (2603, Cell Signaling Technology); GFPT1 (14132-1-Ig, Proteintech); RPN1 (12894-1-AP, Proteintech); RPN2 (10576-1-AP, Proteintech); DDOST (14916-1-AP, Proteintech); GFP (66002-1-Ig, Proteintech), O-Linked N-Acetylglucosamine (ab2739, Abcam); OGT (11576-2-AP, Proteintech); OGA (66033-1-Ig, Proteintech). The presence of target protein was visualized using Super Surgical Western Pico ECL substrate (Pierce). Quantification of the western blotting images was done using ImageJ (NIH).

OGT = target: T1, OGT (Mus musculus, UniProt Q8CGY8); conditions: Liu et al., 2018; cited from earlier work
T1 sequence (Q8CGY8 2-1046 limits assumed): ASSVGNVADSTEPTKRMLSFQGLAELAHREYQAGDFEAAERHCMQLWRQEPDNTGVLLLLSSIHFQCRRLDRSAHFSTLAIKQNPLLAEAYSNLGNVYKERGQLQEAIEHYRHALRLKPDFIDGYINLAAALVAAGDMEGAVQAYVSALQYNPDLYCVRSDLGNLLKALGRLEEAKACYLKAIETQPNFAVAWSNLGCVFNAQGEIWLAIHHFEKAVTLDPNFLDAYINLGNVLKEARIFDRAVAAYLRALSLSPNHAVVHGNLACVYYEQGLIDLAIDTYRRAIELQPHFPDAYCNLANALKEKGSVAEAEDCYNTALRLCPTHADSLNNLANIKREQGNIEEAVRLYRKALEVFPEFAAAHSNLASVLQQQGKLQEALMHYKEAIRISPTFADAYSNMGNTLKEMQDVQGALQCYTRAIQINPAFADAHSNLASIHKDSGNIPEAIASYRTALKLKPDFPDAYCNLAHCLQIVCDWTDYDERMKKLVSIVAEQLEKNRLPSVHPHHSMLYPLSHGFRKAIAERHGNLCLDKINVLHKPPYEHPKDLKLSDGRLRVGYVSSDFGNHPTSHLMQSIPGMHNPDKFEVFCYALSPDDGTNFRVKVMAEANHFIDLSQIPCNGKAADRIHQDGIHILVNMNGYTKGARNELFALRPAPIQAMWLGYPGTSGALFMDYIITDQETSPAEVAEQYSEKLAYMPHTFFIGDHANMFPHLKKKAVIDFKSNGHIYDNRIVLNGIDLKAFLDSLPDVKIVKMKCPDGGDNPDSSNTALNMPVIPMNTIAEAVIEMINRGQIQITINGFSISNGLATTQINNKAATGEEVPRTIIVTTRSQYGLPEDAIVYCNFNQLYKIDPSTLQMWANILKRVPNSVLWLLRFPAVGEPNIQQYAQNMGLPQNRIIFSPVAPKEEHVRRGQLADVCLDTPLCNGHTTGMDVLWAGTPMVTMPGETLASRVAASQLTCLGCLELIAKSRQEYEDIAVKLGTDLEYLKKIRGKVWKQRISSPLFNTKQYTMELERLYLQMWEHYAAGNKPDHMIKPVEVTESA

[1] = system: C57BL/6J mice treated with HFD_L-NAME; assay: HFD_L-NAME HFpEF mouse model: echocardiography, heart weight, treadmill exercise test; assay type: in vivo
From the text: HKΔE1HK1/Δ^E1HK1 (ΔE1HK1) and HK1^WT/WT wild-type (WT) control mice were generated by the Northwestern Mutagenesis and Transgenic core (De Jesus et al., 2022). Briefly, guide RNAs (gRNAs) were designed to induce a double-strand break (DSB) near the 5′ ATG start codon of HK1 in exon 1, and a DNA template containing an M-DYKDDDDK (Methionine-FLAG-tag) sequence with flanking homology arms to the HK1 gene near exon 1 was introduced into fertilized zygotes and implanted into surrogate mice. […] Mouse's genetic background is C57BL/6J. Tie2-Tet-OGA mice are generous gifts from Dr. Dillmann and Dr. Makino (Makino etal., 2015). Mice were maintained in the barrier facility at Northwestern University under specific pathogen-free conditions under the Federal and University guidelines and protocols approved by Institutional Animal Care and Use Committee (IACUC) with 12 hr light and 12 hr dark cycles and received normal chow (NC). Male and female ΔE1HK1 mice were used at 8-40 weeks of age. 8-week-old ΔE1HK1 male mice were fed HFD consisting of 60% fat, 20% protein, and 20% carbohydrates for 20 weeks. To produce the HFpEF mice model, C57BL/6J and Tie2-Tet-OGA mice were fed HFD and 0.5 g/L ofN.-Nitro-L-arginine methyl ester (LNAME, Sigma-Aldrich) for 8-15 weeks. For the induction of OGA overexpression, 0.5 g/L of DOX in drinking water was administered to Tie2-Tet-OGA mice until they were sacrificed. All animal studies were approved by the IACUC at Northwestern University and were performed in accordance with guidelines from the National Institutes of Health.
Mice were anesthetized using isoflurane via a nasal cone, the chest was shaved, and the temperature of the mice was maintained at 37° C. The heart rate was continually monitored. Transthoracic echocardiography was performed using a VisualSonics Vevo 2100 system equipped with an MS400 transducer (FUJIFILM). LVEF and other indices of systolic function and thickness of LV walls were obtained from short-axis M-mode scans at the midventricular level, as indicated by the presence of papillary muscles. Apical four-chamber views were obtained for diastolic function measurements using pulsed-wave and tissue doppler imaging at the level of the mitral valve. During echocardiogram acquisition, isoflurane was maintained in 1.0-1.5% to maintain a heart rate in the range of 400-450 beats per min. All parameters were measured at least three times, and means are presented.
The exercise exhaustion test was performed as previously described (Schiattarella et al., 2019). After three days of acclimatization to treadmill exercise, an exhaustion test was performed in the experimental groups of mice. Mice ran uphill (20°) on the treadmill (Columbus Instruments) starting at a warm-up speed of 5 m/min for 3 min after which speed was increased to 14 m/min for 2 min. Every subsequent 2 min, the speed was increased by 2 m/min until the mouse was exhausted. Exhaustion was defined as the inability of the mouse to return to running within 10 s of direct contact with an electric-stimulus grid. Running time was measured and running distance calculated.

ECs from ΔE1HK1 mice = assay: Tube formation assay in isolated ECs from ΔE1HK1 mice treated with ST045849; assay type: cell-based, mouse; conditions: 20 μM, FIGS. 7H and 7I
Description: Endothelial cells (ECs) were isolated from mouse hearts as previously described (Luo et al., 2016; van Beijnum et al., 2008). Briefly, dissected mouse heart was minced and incubated with PBS containing 2% fetal bovine serum (FBS), 1 mg/ml collagenase II (Worthington), and 0.6 U/ml dispase II (Sigma-Aldrich) for 30 mins at 37° C. 7.5 μg/ml of DNase I (Sigma-Aldrich) was added to the digested hearts and additional incubation for 30 minutes was performed. The digested material was filtered through 40 μm cell strainer, then incubated with biotinylated anti-CD45 antibody (Invitrogen) and depleted of CD45 positive cells using EasySep Mouse Streptavidin (STEMCELL technologies) as described in the manufacture's protocol. […]
The formation of tube networks was assessed as described before (Das et al., 2018). […] Following an 18 hour-incubation, tube networks from each biological replicate were analyzed in at least three random fields by light microscopy. The number of branch points (junctions), segments and meshes, and total length of tubule networks (total length of branching) were quantified by Fiji software (Angiogenesis Analyzer).

HUVECs = assay: Tube formation assay in HUVECs treated with tunicamycin; assay type: cell-based, human; conditions: HUVECs, 0, 30, 50, and 100 nM, FIG. 6P
Description: The formation of tube networks was assessed as described before (Das et al., 2018). HUVECs and isolated ECs were seeded at 20,000 and 45,000cells per well in a 96-well plate coated with […] Matrigel (Fisher Scientific) or Cultrex (R & D Systems) reduced growth factor basement membrane matrix. The cells were treated with EGM-2 medium containing tunicamycin (Sigma-Aldrich) or ST045849 (Sigma-Aldrich) wherever mentioned. Following an 18 hour-incubation, tube networks from each biological replicate were analyzed in at least three random fields by light microscopy. The number of branch points (junctions), segments and meshes, and total length of tubule networks (total length of branching) were quantified by Fiji software (Angiogenesis Analyzer).

[2] = system: genes related to UPR in HUVEC; assay: mRNA levels of genes related to UPR (Xbp1s, Hspa5) in HUVEC treated with tunicamycin; assay type: cell-based, human; conditions: FIGS. 6N and 6O
Description: RNA was isolated from cells or heart samples using RNA-STAT60 (Tel-Test), and reverse transcribed with Taqman Reverse Transcription Reagents (Invitrogen) according to manufacturers' instructions. Quantification of relative gene expression was done using Fast SYBR Green Master Mix (Applied Biosystems) and run on 7500 Fast Real-Time PCR system (Applied Biosystems). The relative gene expression was determined using differences in Ct values between the gene of interest and house-keeping control genes, which are Actb, Hprt1, and/or 18S, depending on the experiment.

[3] = system: protein N-glycosylation in HUVEC; assay: Lectin blot with ConA-HRP of HUVEC treated with tunicamycin (dose-curve); assay type: cell-based, human; conditions: preliminary dose-curve experiments, FIG. 6M
Description: HUVECs were purchased from Lonza and grown in EGM2 media (Lonza). HEK293T cells were purchased from ATCC and cultured in DMEM (Corning) with 10% FBS (Bio-Techne Sales Corp.). All cells were maintained in a 37° C. incubator with 5% CO2 and were 70% to 90% confluent when collected for analyses.
Nitrocellulose membranes with blotted proteins were blocked with PBS containing 2% Tween 20 for 2 minutes at room temperature. They were rinsed with PBS twice, then incubated with 1 μg/ml of ConA-HRP (Sigma-Aldrich) in PBS containing 0.05% Tween 20, 1 mM CaCl2), 1 mM MnCl2, and 1 mM MgCl2 for 16 hours at room temperature avoiding exposure to the light. The presence of proteins conjugated with the lectin was visualized using Super Surgical Western Pico ECL substrate (Pierce). Quantification of the images was done using ImageJ (NIH).

[4] = isolated ECs, intraperitoneal, dose dependency study, FIG. 9A
[5] = single intraperitoneal injection of 50 mg/kg, FIG. 9M
[6] = 30 mg/kg every 48 hours for 10 weeks following 5 weeks of HFD_L-NAME
[7] = 50 mg/kg for 3 weeks following 5 weeks of HFD_L-NAME
[8] = 20 and 30 mg/kg every 48 hours for 10 weeks following 5 weeks of HFD_L-NAME

CCCCCC(=O)N[C@H]1C(O)S[C@H](CO)[C@@H](O)[C@@H]1O (stereo partly drawn) [5S-GlcNHex, 2-deoxy-2-N-hexanamide-5-thio-D-glucopyranoside]
dose at which reduction of protein O-GlcNAcylation reached a plateau (protein O-GlcNAcylation; [4]): 30 mg/kg | dose that initiated the reduction of protein O-GlcNAcylation (protein O-GlcNAcylation; [4]): 20 mg/kg | protein O-GlcNAcylation in various organs (protein O-GlcNAcylation; single intraperitoneal injection of 50 mg/kg, C57BL6/J mice): effectively curtailed | time after which protein O-GlcNAcylation returns to baseline (protein O-GlcNAcylation; [5]): 72 h | time over which protein O-GlcNAcylation is reduced (protein O-GlcNAcylation; [5]): 48 h | protein O-GlcNAcylation in ECs in vivo (protein O-GlcNAcylation; summary statement): successfully reduces | in vivo efficacy among OGT inhibitors (OGT): significant in vivo efficacy | increased E/A ratio ([1]; 20 mg/kg every 48 hours for 10 weeks following 5 weeks of HFD_L-NAME): reversed | exercise capacity (treadmill test) [1, 6]: significant improvement | increased E/A ratio [1, 6]: reversed | EF [1, 7]: no discernable effects | cardiac hypertrophy as indicated by PWTd [1, 7]: ameliorated | cardiac hypertrophy as indicated by heart weights [1, 7]: ameliorated | decreased e' [1, 7]: substantially restored | increased E/A [1, 7]: substantially restored | increased E/e' [1, 7]: substantially restored | increased LA area [1, 7]: substantially restored | HFpEF phenotype ([1]; 50 mg/kg, FIGS. 9M-9X): reverses the HFpEF phenotype | EF [1, 8]: no significant changes | LV diameter in systole (LVDs) [1, 8]: no significant changes | LVDd [1, 8]: no significant changes | fraction shortening (FS) [1, 8]: no significant changes | increased LA sizes [1, 8]: tendency to decrease | increased heart weights [1, 8]: tendency to decrease | HFpEF phenotype ([1]; summary statement): reversal of the HFpEF phenotype

O=C(O)C1CC(=O)N(CCC23CC4CC(CC(C4)C2)C3)C(=Nc2ccc(Cl)cc2)S1 (stereo not shown) [ST045849]
tube formation: number of junctions (ECs from ΔE1HK1 mice): significant enhancement | tube formation: total length of branching (ECs from ΔE1HK1 mice): significant enhancement

tunicamycin
tube formation (number of junctions, total length of branching) (HUVECs): no significant effects | mRNA levels of genes related to UPR [2]: acted in the same manner as observed in N-glycosylation experiments | concentration at which reduced protein N-glycosylation was confirmed [3]: 20 nM | concentration at which reduction of protein N-glycosylation reaches plateau [3]: 50 nM
